One test relates to Human alphaherpesvirus 2. In words: Concentration required for inhibition of proliferation of herpes simplex virus type II at 0.07 ug/mL. It counts as functional.
Test [1] in a line: Concentration required for inhibition of proliferation of herpes simplex virus type I at 0.07 ug/mL. Format: functional. As to conditions: Human alphaherpesvirus 1.

Among the data in ChEMBL document CHEMBL1126485, “Synthesis of nucleoside analogues with a 1,5-anhydrohexitol moiety” (1993) are inhibition values, retold here.

On to `O=c1[nH]c(=O)n(C2COC(CO)C(O)C2)cc1I` (configuration not stated), for which the inhibition at 0.07 µg/mL (with Human alphaherpesvirus 2; in test [1]) was 50% each time.
